Experimental data from ChEMBL document CHEMBL5465560, “Selectivity Literature for EUbOPEN Chemogenomic Library” (2024).

How the values were obtained:
[1] = molecular target: Serine/threonine-protein kinase PAK 2 (Homo sapiens) (UniProt Q13177); assay: Selectivity interaction (Millipore kinase profiler) EUB0000124b PAK2; details: at 10 µM
[2] = molecular target: Dual specificity protein kinase CLK2 (Homo sapiens, UniProt P49760); assay: Selectivity interaction (KinomeScan (DiscoverX)) EUB0000666a CLK2; details: at 10 µM
Chain of Dual specificity protein kinase CLK2 (P49760 whole entry, looked up): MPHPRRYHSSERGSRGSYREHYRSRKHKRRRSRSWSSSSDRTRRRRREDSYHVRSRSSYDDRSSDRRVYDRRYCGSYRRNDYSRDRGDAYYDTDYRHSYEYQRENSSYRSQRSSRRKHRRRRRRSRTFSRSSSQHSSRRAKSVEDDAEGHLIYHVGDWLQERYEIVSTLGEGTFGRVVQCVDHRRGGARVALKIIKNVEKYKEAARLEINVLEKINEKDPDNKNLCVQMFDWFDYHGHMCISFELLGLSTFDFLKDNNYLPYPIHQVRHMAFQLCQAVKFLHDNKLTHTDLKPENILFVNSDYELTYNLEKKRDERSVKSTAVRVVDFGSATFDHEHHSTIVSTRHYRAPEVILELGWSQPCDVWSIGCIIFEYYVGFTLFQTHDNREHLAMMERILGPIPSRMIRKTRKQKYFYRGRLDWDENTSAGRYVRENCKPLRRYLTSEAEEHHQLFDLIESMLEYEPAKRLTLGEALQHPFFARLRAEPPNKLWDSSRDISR

[3] = molecular target: T1, Phosphatidylinositol 5-phosphate 4-kinase type-2 beta (Homo sapiens) (UniProt P78356); assay: Selectivity interaction (KinomeScan (DiscoverX)) EUB0001079a PIP4K2B; details: at 1 µM
T1 sequence (whole entry): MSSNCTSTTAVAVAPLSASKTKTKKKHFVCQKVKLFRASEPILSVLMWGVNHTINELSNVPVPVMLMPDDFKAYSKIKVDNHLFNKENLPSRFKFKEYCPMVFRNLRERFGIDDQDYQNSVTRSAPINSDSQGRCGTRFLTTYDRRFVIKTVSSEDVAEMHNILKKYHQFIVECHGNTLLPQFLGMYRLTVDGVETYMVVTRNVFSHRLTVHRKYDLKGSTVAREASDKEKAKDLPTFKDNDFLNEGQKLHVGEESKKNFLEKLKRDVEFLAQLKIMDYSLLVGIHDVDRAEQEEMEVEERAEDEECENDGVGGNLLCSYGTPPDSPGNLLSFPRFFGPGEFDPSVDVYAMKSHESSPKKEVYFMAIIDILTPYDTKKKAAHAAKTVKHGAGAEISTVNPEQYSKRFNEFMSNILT

[4] = molecular target: Serine/threonine-protein kinase 26 (Homo sapiens, UniProt Q9P289); assay: Selectivity interaction (KinomeScan (DiscoverX)) EUB0000655a STK26; details: at 10 µM
Chain of Serine/threonine-protein kinase 26 (Q9P289 2-416 limits assumed): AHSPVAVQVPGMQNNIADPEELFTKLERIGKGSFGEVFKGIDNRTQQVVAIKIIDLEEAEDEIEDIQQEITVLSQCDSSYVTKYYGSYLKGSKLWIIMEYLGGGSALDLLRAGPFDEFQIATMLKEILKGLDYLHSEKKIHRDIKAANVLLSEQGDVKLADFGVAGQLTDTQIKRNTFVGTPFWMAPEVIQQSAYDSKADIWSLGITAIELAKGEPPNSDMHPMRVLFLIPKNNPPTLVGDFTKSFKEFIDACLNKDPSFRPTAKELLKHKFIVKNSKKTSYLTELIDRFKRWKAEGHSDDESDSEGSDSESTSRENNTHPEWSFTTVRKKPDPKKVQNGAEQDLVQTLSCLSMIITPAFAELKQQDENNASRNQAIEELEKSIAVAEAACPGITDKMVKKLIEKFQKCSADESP

[5] = molecular target: T2, Serine/threonine-protein kinase PLK4 (Homo sapiens) (UniProt O00444); assay: Selectivity interaction (KinomeScan (DiscoverX)) EUB0000695a PLK4; details: at 100 nM
T2 sequence (whole entry): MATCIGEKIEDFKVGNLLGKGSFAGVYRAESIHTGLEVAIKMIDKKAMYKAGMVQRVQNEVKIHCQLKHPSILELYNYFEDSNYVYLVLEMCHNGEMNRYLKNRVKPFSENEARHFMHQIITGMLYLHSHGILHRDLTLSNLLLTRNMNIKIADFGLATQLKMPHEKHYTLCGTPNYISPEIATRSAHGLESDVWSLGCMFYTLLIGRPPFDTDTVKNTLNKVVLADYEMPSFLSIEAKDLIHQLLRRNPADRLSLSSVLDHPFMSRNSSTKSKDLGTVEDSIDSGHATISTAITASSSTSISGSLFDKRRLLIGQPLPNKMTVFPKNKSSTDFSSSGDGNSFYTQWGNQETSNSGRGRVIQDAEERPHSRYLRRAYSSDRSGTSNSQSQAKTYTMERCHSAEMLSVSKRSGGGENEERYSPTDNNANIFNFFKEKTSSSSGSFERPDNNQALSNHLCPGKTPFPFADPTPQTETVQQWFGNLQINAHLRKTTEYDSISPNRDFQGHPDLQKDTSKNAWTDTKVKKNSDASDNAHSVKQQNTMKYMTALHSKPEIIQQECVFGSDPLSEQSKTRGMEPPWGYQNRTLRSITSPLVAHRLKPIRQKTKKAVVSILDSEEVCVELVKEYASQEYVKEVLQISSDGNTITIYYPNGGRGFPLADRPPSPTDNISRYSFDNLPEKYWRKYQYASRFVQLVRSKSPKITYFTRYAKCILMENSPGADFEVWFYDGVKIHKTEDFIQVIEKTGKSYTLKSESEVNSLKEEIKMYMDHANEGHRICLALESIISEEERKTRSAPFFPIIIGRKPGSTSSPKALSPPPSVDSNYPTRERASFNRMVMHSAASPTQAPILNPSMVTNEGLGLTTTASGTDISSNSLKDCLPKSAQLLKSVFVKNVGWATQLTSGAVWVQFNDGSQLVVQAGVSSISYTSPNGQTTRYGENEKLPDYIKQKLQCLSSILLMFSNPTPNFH

[6] = molecular target: T3, Tyrosine-protein kinase ZAP-70 (Homo sapiens) (UniProt P43403); assay: Selectivity interaction (KinomeScan (DiscoverX)) EUB0000607a ZAP70; details: at 10 µM
T3 sequence (whole entry): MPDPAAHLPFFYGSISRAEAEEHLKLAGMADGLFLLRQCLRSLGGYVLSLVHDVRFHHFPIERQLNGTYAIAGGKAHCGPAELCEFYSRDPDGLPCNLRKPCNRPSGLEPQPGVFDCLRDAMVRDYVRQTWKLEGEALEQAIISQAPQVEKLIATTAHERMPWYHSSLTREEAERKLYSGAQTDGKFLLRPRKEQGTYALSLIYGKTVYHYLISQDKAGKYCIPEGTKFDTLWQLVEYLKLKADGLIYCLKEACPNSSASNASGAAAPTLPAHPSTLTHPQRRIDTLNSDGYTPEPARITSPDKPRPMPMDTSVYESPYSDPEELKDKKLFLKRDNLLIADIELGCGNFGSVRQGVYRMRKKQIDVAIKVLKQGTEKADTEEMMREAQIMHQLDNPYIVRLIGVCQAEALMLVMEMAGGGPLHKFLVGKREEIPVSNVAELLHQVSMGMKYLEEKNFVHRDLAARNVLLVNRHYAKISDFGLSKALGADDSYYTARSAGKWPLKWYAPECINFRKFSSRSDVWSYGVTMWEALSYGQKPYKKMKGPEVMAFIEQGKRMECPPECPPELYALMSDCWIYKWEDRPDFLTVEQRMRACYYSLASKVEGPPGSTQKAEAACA

Chain of Serine/threonine-protein kinase PAK 2 (Homo sapiens) (Q13177 whole entry): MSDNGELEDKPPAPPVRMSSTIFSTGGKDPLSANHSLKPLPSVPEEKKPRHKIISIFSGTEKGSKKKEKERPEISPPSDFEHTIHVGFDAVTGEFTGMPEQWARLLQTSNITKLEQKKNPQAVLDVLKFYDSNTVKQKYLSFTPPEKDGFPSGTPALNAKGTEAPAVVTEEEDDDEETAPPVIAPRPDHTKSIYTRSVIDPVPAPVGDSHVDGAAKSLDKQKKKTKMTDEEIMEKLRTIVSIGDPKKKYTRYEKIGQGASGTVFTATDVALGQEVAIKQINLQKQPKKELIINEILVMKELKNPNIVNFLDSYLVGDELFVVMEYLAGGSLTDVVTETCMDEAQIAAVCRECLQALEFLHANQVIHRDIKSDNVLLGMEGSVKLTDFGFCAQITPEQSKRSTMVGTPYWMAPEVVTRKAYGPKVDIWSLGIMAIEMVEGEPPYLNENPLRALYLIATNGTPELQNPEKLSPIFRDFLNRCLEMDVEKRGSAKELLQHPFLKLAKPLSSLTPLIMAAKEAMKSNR

`CC(=O)Nc1cccc(-n2c(=O)n(C3CC3)c(=O)c3c(Nc4ccc(I)cc4F)n(C)c(=O)c(C)c32)c1` was tested. Which % of control [1] did it give?
Its % of control is 96%.

For `O=C(NOC[C@H](O)CO)c1ccc(F)c(F)c1Nc1ccc(I)cc1F`, which % of control [2] is on record?
The % of control was 96%.

How did the % of control [3] turn out when `Nc1cnc(N2CCc3cc(S(=O)(=O)Nc4c(F)cc(Cl)cc4F)cc(N4CCCC4=O)c32)nc1` [TP-020n] was run?
The % of control was 100%.

With `CN(C)CCOc1ccc(-c2nc(-c3ccncc3)c(-c3ccc4c(c3)CC/C4=N\O)[nH]2)cc1` as the compound, how does the % of control [4] read?
Its % of control is 91%.

How did the % of control [5] turn out when `Cc1cc(F)c(C(=O)Nc2cccc(-c3nncn3C(C)C)n2)cc1-n1cnc(C2CC2)c1` was run?
Its % of control is 100%.

With `CNC(=O)Nc1ccc(-c2nc(N3CC4CCC(C3)O4)c3cnn(C4CCC5(CC4)OCCO5)c3n2)cc1` as the compound, how does the % of control [6] read?
The % of control was 83%.
